Assay results reported in US9096591B2, “Tetracyclic compounds” (Medivation Technologies, Inc., priority 2007, dated 2015).
Where two headings read alike, the source gives them in different places.

How the values were obtained:
[1] = molecular target: T1, human recombinant histamine H2 receptor (Homo sapiens, UniProt P25021); assay: Histamine H2 radioligand binding ([125I]Aminopotentidine)
T1 construct: expressed in transfected cells; host or cells: CHO-K1 cells
How it was run: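 Test compounds were assessed for their ability to displace radioligand from the human recombinant histamine H2 receptor. Non-specific binding was determined in the presence of 3 μM Tiotidine, and results were expressed as percent inhibition of specific binding, with 1% DMSO serving as the vehicle.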

[2] = molecular target: T2, human recombinant adrenergic α2A receptor (Homo sapiens, UniProt P08913); assay: Adrenergic α2A radioligand binding ([3H]MK-912); design: Inhibition of ligand binding, Adren. alpha2A: concentration or dose not given beside the values; details: for Inhibition of ligand binding, Adren. alpha2A: percent inhibition of specific binding; for inhibition at 1 µM: compounds screened at 1 μM, read-out: Inhibition of ligand binding, Adren. alpha2A (percent inhibition of specific binding)
T2 construct: expressed in transfected cells; host or cells: insect Sf9 cells
T2 sequence (P08913 1-465): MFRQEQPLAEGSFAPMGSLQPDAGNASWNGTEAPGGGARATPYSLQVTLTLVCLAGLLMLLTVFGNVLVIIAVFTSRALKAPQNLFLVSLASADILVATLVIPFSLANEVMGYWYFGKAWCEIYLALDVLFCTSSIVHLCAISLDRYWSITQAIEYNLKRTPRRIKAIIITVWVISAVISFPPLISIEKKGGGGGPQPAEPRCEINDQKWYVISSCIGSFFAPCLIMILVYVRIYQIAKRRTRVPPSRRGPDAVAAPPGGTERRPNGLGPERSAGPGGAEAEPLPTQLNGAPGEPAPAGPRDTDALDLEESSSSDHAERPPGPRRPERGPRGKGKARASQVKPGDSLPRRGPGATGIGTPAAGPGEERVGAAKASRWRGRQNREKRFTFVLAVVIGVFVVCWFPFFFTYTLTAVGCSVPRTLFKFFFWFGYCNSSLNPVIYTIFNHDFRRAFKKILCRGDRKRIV
How it was run: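 Membranes from Sf9 cells expressing the receptor were incubated with 1 nM [3H]MK-912 for 60 minutes at 25° C in 50 mM Tris-HCl pH 7.4, 12.5 mM MgCl2, 2 mM EDTA. 10 μM WB-4101 defined non-specific binding. Values are percent inhibition of specific bound radioactivity after filtration.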

[3] = molecular target: T3, human recombinant serotonin (5-Hydroxytryptamine) 5-HT2C receptor (Homo sapiens, UniProt P28335); assay: Serotonin 5-HT2C radioligand binding ([3H]Mesulergine); design: Inhibition of ligand binding, Ser. 5-HT2C: concentration or dose not given beside the values; details: for Inhibition of ligand binding, Ser. 5-HT2C: percent inhibition of specific binding; for inhibition at 1 µM: compounds screened at 1 μM, read-out: Inhibition of ligand binding, Ser. 5-HT2C (percent inhibition of specific binding)
T3 construct: expressed in transfected cells; host or cells: CHO-K1 cells
T3 sequence (P28335 33-458): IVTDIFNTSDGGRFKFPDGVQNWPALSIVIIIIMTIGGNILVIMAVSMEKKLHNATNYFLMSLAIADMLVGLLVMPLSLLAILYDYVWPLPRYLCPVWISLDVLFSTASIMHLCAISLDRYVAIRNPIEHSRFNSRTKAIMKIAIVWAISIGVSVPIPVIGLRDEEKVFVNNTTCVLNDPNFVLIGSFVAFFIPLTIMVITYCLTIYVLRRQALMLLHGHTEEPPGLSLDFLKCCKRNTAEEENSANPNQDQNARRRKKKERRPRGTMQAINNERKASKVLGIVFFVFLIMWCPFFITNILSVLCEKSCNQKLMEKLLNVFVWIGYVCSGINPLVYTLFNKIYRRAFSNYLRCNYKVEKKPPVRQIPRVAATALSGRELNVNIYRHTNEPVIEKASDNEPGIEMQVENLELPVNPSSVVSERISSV
Protocol: Compounds of the invention were incubated with 1 nM [^3H]Mesulergine for 60 minutes at 25° C. Non-specific binding was estimated in the presence of 1 μM Mianserin. Receptor proteins were filtered and washed, the filters were then counted to determine [^3H]Mesulergine specifically bound. […] Biochemical assay results are presented as the percent inhibition of specific binding in Table 6.

[4] = molecular target: T4, Serotonin (5-Hydroxytryptamine) 5-HT7 (Homo sapiens, UniProt P34969); assay: Serotonin 5-HT7 radioligand binding ([3H]LSD); design: Inhibition of ligand binding, Ser. 5-HT7: concentration or dose not given beside the values; details: for Inhibition of ligand binding, Ser. 5-HT7: percent inhibition of specific binding; for inhibition at 1 µM: compounds screened at 1 μM, read-out: Inhibition of ligand binding, Ser. 5-HT7 (percent inhibition of specific binding)
T4 construct: expressed in transfected cells; host or cells: CHO cells
T4 sequence (P34969 whole entry): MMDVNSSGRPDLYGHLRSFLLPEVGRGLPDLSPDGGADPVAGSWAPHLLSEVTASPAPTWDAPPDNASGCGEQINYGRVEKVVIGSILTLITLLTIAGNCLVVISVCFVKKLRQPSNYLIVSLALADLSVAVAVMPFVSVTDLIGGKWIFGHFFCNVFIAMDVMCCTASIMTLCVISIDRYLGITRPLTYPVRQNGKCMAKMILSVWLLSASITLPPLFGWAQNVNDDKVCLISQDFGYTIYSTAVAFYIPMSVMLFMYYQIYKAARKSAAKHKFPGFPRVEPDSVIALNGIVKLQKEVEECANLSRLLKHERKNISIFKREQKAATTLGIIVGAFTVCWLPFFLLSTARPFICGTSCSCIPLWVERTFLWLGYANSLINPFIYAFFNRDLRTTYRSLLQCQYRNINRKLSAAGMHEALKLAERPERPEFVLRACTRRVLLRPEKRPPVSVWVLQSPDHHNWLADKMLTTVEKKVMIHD
Protocol: Lysergic acid diethylamide (LSD) for 2 hours at 25° C. […] Receptor proteins were filtered and washed, the filters were then counted to determine [^3H]LSD specifically bound. […] Biochemical assay results are presented as the percent inhibition of specific binding in Table 6.

[5] = 1 μM compound, 0.1 nM [125I]Aminopotentidine, read-out: Histamine Binding H2, percent inhibition of specific binding
[6] = percent inhibition of specific binding, screened at 1 μM, read-out: Inhibition of ligand binding, Hist. H2
[7] = compounds screened at 1 μM, read-out: Inhibition of ligand binding, Hist. H2 (percent inhibition of specific binding)

T1 sequence (P25021 whole entry): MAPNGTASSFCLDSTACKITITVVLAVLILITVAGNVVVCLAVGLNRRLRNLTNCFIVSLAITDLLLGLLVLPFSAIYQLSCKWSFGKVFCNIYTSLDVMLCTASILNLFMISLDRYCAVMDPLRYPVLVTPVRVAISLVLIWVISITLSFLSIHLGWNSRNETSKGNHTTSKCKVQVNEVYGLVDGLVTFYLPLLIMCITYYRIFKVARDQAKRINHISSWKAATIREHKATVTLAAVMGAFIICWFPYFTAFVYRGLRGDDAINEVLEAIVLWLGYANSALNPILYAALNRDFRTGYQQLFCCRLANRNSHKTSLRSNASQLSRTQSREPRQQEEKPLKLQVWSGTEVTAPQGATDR

Row | Structure (SMILES) | inhibition at 1 µM [1, 5] | inhibition at 1 µM [1, 6] | Inhibition of ligand binding, Adren. alpha2A [2] | Inhibition of ligand binding, Ser. 5-HT2C [3] | Inhibition of ligand binding, Ser. 5-HT7 [4] | inhibition at 1 µM [1, 7] | inhibition at 1 µM [2] | inhibition at 1 µM [3] | inhibition at 1 µM [4]
1 | Cc1ccc2c(c1)c1c(n2CCc2ccc(C)nc2)C(Br)C(=O)N(C)C1 (centres unmarked) [Compound 232, 4-bromo-1,2-dihydro-2,8-dimethyl-5-(2-(6-methylpyridin-3-yl)ethyl)-4H-pyrido[4,3-b]indol-3(5H)-one] | 3% | 3% | 2% | 2% | 6% | – | – | – | –
2 | Cc1ccc2c(c1)c1c(n2CCCc2ccccn2)CCN(C)C1 [Compound 233, 2,3,4,5-tetrahydro-2,8-dimethyl-5-(3-(pyridin-2-yl)propyl)-1H-pyrido[4,3-b]indole] | 45% | 45% | 90% | 93% | 101% | – | – | – | –
3 | Cc1ccc2c(c1)c1c(n2CCc2ccc(C(=O)O)nc2)CCN(C)C1 [Compound 255] | -15% | -15% | −8% | 11% | 11% | – | – | – | –
4 | Cc1ccc(CCn2c3c(c4cc(C(=O)O)ccc42)CNCC3)cn1 [Compound 274, 2,3,4,5-tetrahydro-5-(2-(6-methylpyridin-3-yl)ethyl)-1H-pyrido[4,3-b]indole-8-carboxylic acid] | – | -2% | 7% | −5% | −3% | – | – | – | –
5 | CN1CCc2c(c3ccccc3n2CCc2ccccn2)C1 [Compound 329, 2,3,4,5-tetrahydro-2-methyl-5-(2-(pyridin-2-yl)ethyl)-1H-pyrido[4,3-b]indole] | – | 16% | 37% | 54% | 78% | – | – | – | –
6 | Cc1ccc2c(c1)c1c(n2CCc2nc(-c3ccccc3)cs2)CCN(C)C1 [Compound C1-5] | – | – | – | – | – | 73% | 92% | 93% | 93%
7 | COc1ccc2c(c1)c1c(n2CCc2nc(-c3ccccc3)cs2)CCN(C)C1 [Compound C1-6] | – | – | – | – | – | 21% | 55% | 90% | 57%
8 | CN1CCc2c(c3cc(F)ccc3n2CCc2nc(-c3ccccc3)cs2)C1 [Compound C1-7] | – | – | – | – | – | 55% | 88% | 91% | 90%
9 | CN1CCc2c(c3ccccc3n2CCc2noc(-c3ccccc3)n2)C1 [Compound C4-1] | – | – | – | – | – | 47% | 95% | 91% | 88%
10 | Cc1ccc2c(c1)c1c(n2CCc2noc(-c3ccccc3)n2)CCN(C)C1 [Compound C4-4] | – | – | – | – | – | 68% | 96% | 98% | 96%
11 | CN1CCc2c(c3cc(Cl)ccc3n2CCc2noc(-c3ccccc3)n2)C1 [Compound C4-6] | – | – | – | – | – | 68% | 96% | 94% | 90%
